Here are results for 10 compounds from ChEMBL document CHEMBL1201862, “PubChem BioAssay data set” (2004).

The structures appear in SMILES notation.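 Interpolation was linear, between the two tested concentrations surrounding the appropriate level; five concentrations were tested over 48 hours in 96-well plates. At the GI50, growth is halved.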 Activity calls are given as the source filed them. Rule as the data show it: active = GI50 up to about 1.1 µM and inactive = higher.

Test systems include 786-0; A498; A549; ACHN; CAKI-1; COLO 205; EKVX; HCC 2998; HT-29; KM12; Malme-3M; NCI-H23; OVCAR-8; PC-3; SK-MEL-5; SN12C; SNB-19; SW-620; T47D; UACC-62.
Holding throughout (assay): NCI-60 cell line screen, 48 h

Take `O=C1c2ccccc2C(=O)c2c(NCC3CO3)ccc(NCC3CO3)c21` (stereo not given): the GI50 in the assay with 786-0 is 0.766 µM (active); in the assay on A498 it was 33.3 µM (inactive); with A549, 2.4 µM (inactive); with ACHN, 0.303 µM (active); in the assay on CAKI-1, 0.687 µM (active); in the assay on COLO 205 it was 4.99 µM (inactive). The GI50 is > 32.2 µM (inactive) in the assay with EKVX; 9.1 µM (inactive) in the assay with HCC 2998; 1.88 µM (inactive) with HT-29; 3.85 µM (inactive) in the assay on KM12; 5.3 µM (inactive) in the assay with Malme-3M; 1.49 µM (inactive) in the assay on NCI-H23. Moreover, the GI50 in the assay on OVCAR-8 was 0.63 µM (active); in the assay with PC-3, 1.91 µM (inactive); with SK-MEL-5, 1.68 µM (inactive); in the assay on SN12C, 0.456 µM (active); in the assay on SNB-19, 15.1 µM (inactive); in the assay with SW-620, 1.22 µM (inactive). The GI50 in the assay with T47D is 4.2 µM (inactive); in the assay with UACC-62, 1.08 µM (active).
As for `CN(C)CCS/C(=N\c1ccccc1)N1C=COC=C1`, the GI50 with 786-0 is 20.1 µM (inactive); in the assay with A498 it was > 100 µM (inactive); with A549, > 100 µM (inactive); with ACHN, 34.1 µM (inactive); in the assay with CAKI-1, > 33.3 µM (inactive); in the assay on COLO 205, 27.2 µM (inactive). In addition, the GI50 with EKVX was 86.1 µM (inactive); in the assay with HCC 2998 it was 24.7 µM (inactive); in the assay with HT-29 it was 43.7 µM (inactive); in the assay on KM12, 57.4 µM (inactive); with Malme-3M it was 33.7 µM (inactive); with NCI-H23, 25.8 µM (inactive). The GI50 with OVCAR-8 was 37.5 µM (inactive); in the assay on PC-3 it was 34.4 µM (inactive); in the assay on SK-MEL-5, 19.5 µM (inactive); in the assay with SN12C it was 27.5 µM (inactive); in the assay with SNB-19 it was > 100 µM (inactive); in the assay with SW-620, 21.4 µM (inactive). In addition, the GI50 in the assay with T47D is 15.3 µM (inactive); in the assay on UACC-62, 16 µM (inactive).
For the compound `NC(Cc1ccc(N(CCCl)CCCl)cc1)C(=O)NC(CCC(=O)O)C(=O)O` (stereo not given), the GI50 in the assay on 786-0, in the assay on A498, in the assay with A549, with ACHN, in the assay with CAKI-1 and in the assay on COLO 205 was > 100 µM (inactive) each time. For the same compound, the GI50 in the assay on EKVX, with HCC 2998, in the assay on HT-29, in the assay with KM12, with Malme-3M and with NCI-H23 was > 100 µM (inactive) throughout. Besides, the GI50 in the assay on OVCAR-8, in the assay on PC-3, in the assay with SK-MEL-5, in the assay with SN12C, with SNB-19 and in the assay with SW-620 was > 100 µM (inactive) throughout. Further, the GI50 in the assay on T47D and in the assay on UACC-62 was > 100 µM (inactive) in each case.
For the compound `CC(C)NC(=O)OCc1c(COC(=O)NC(C)C)n(C)c2c1ccc1ccsc12`, the GI50 in the assay on 786-0 is 6.46 µM (inactive); in the assay on A498, 9.73 µM (inactive); with A549 it was 9.98 µM (inactive); in the assay on ACHN it was 3.05 µM (inactive); in the assay with CAKI-1, 1.81 µM (inactive); with COLO 205 it was 12.9 µM (inactive). The GI50 in the assay with EKVX is 17.5 µM (inactive); with HCC 2998, 14.4 µM (inactive); with HT-29, 12.1 µM (inactive); in the assay on KM12 it was 15.3 µM (inactive); in the assay with Malme-3M, 4.36 µM (inactive); with NCI-H23, 5.28 µM (inactive). Besides, the GI50 in the assay with OVCAR-8 was 9.59 µM (inactive); in the assay with PC-3, 15.3 µM (inactive); with SK-MEL-5, 10.7 µM (inactive); in the assay on SN12C, 5.66 µM (inactive); in the assay with SNB-19, 10.8 µM (inactive); with SW-620, 5.19 µM (inactive). Also, the GI50 in the assay on T47D is 15.5 µM (inactive); in the assay with UACC-62, 6.9 µM (inactive).
For the compound `O=C(/C=C/C(=O)N1CCCC1)N1CCCC1`, the GI50 in the assay on 786-0, with A498, in the assay on A549, in the assay with ACHN, in the assay with CAKI-1 and in the assay on COLO 205 was > 100 µM (inactive) throughout. Besides, the GI50 in the assay with EKVX, with HCC 2998, in the assay with HT-29, in the assay with KM12, in the assay with Malme-3M and with NCI-H23 was > 100 µM (inactive) in each case. The GI50 in the assay with OVCAR-8, with PC-3, in the assay with SK-MEL-5, in the assay with SN12C, in the assay with SNB-19 and in the assay with SW-620 was > 100 µM (inactive) throughout. The GI50 in the assay with T47D and with UACC-62 was > 100 µM (inactive) throughout.
Turning to `OC(C/C=N/Nc1ccccc1)(C(F)(F)Cl)C(F)(F)Cl`, the GI50 in the assay on 786-0 is > 10 µM (inactive); in the assay on A498 it was > 10 µM (inactive); in the assay on A549, > 10 µM (inactive); in the assay on ACHN, 4.49 µM (inactive); with CAKI-1, 7.43 µM (inactive); in the assay on COLO 205, > 10 µM (inactive). The GI50 in the assay with EKVX is > 10 µM (inactive); in the assay on HCC 2998 it was 4.12 µM (inactive); in the assay on HT-29 it was > 10 µM (inactive); in the assay with KM12, > 10 µM (inactive); with Malme-3M, > 10 µM (inactive); in the assay on NCI-H23, 7.23 µM (inactive). The GI50 was > 10 µM (inactive) in the assay with OVCAR-8; 4.05 µM (inactive) with PC-3; > 10 µM (inactive) in the assay on SK-MEL-5; > 10 µM (inactive) with SN12C; > 10 µM (inactive) in the assay with SNB-19; > 10 µM (inactive) in the assay on SW-620. Besides, the GI50 with T47D was 7.53 µM (inactive); in the assay on UACC-62, > 10 µM (inactive).
As to `NC1=CN(CCCO)C2=N/C(=C\c3ccccc3)C(=O)N12`, the GI50 is > 100 µM (inactive) with 786-0; 85.7 µM (inactive) in the assay on A498; > 100 µM (inactive) in the assay on A549; > 100 µM (inactive) with ACHN; > 100 µM (inactive) in the assay on CAKI-1; > 100 µM (inactive) with COLO 205. Also, the GI50 in the assay with EKVX is 69.5 µM (inactive); in the assay on HCC 2998 it was > 100 µM (inactive); with HT-29, > 100 µM (inactive); in the assay with KM12 it was > 100 µM (inactive); with Malme-3M, > 100 µM (inactive); with NCI-H23 it was > 100 µM (inactive). The GI50 with OVCAR-8, with PC-3, in the assay on SK-MEL-5, with SN12C, in the assay on SNB-19 and in the assay on SW-620 was > 100 µM (inactive) in each case. Besides, the GI50 with T47D and in the assay on UACC-62 was > 100 µM (inactive) each time.
With `CCOP(=O)(OCC)C(F)(F)CC1CCCCC1`, the GI50 with 786-0, in the assay on A498, with A549, in the assay with ACHN, with CAKI-1 and in the assay with COLO 205 was > 10 µM (inactive) throughout. Besides, the GI50 in the assay with EKVX, with HCC 2998, in the assay with HT-29, in the assay with KM12, in the assay on Malme-3M and in the assay on NCI-H23 was > 10 µM (inactive) in each case. The GI50 in the assay with OVCAR-8, in the assay with PC-3, in the assay on SK-MEL-5, in the assay with SN12C, in the assay on SNB-19 and with SW-620 was > 10 µM (inactive) throughout. The GI50 with T47D and with UACC-62 was > 10 µM (inactive) in each case.
For `O=S(=O)(O)c1cc(S(=O)(=O)O)c2c(/N=N/c3cccc4ccccc34)c(O)ccc2c1`, the GI50 in the assay with 786-0, with A498, in the assay on A549, in the assay on ACHN, in the assay with CAKI-1 and in the assay with COLO 205 was > 100 µM (inactive) each time. Further, the GI50 in the assay on EKVX, with HCC 2998, in the assay on HT-29, in the assay on KM12, in the assay on Malme-3M and in the assay on NCI-H23 was > 100 µM (inactive) each time. For the same compound, the GI50 in the assay on OVCAR-8, in the assay with PC-3, in the assay on SK-MEL-5, in the assay on SN12C, with SNB-19 and in the assay on SW-620 was > 100 µM (inactive) in each case. In addition, the GI50 with T47D and in the assay with UACC-62 was > 100 µM (inactive) in each case.
Turning to `Nc1ccc(-c2nc3cc(F)ccc3s2)cc1I`, the GI50 in the assay with 786-0 is 16.2 µM (inactive); in the assay on A498, 15.8 µM (inactive); with A549, 23.6 µM (inactive); in the assay with ACHN it was 5.36 µM (inactive); in the assay on CAKI-1, 15.6 µM (inactive); in the assay on COLO 205, 2.45 µM (inactive). The GI50 was 9.46 µM (inactive) in the assay with EKVX; < 0.01 µM (active) in the assay on HCC 2998; 0.889 µM (active) with HT-29; 14.7 µM (inactive) with KM12; 26.1 µM (inactive) in the assay on Malme-3M; 0.445 µM (active) with NCI-H23. Besides, the GI50 with OVCAR-8 is 19.1 µM (inactive); in the assay with PC-3, 24.2 µM (inactive); in the assay with SK-MEL-5, 21.7 µM (inactive); with SN12C, 20.9 µM (inactive); in the assay on SNB-19 it was 21.1 µM (inactive); in the assay with SW-620 it was 27.5 µM (inactive). The results for the GI50 with T47D and with UACC-62 were 0.0658 µM (active) and 19.6 µM (inactive), respectively.
